Source: US10550102B2, “Indane and indoline derivatives and the use thereof as soluble guanylate cyclase activators” (NOVARTIS AG, priority 2014, dated 2020)
pEC50: −log10 of the molar value.

Molecular target: soluble guanylate cyclase (human GUCYA3 and GUCYB3) overexpressed in CHO cells (Homo sapiens (Human), UniProt Q02108+Q02153)
Test: CHO cellular assay (cGMP production, Cisbio cGMP HTRF kit)
Assay type: cell-based
Details: CHO GUCY clone 8E10, cGMP production, assay buffer with 1 mM IBMX and 20 uM ODQ, 1 h room temperature; minimum quantification limit 0.5 nM (listed 0.5 nM means ≤0.5 nM); read-out: EC50
Text: Chinese hamster ovary (CHO) cells overexpressing soluble guanylate cyclase were generated to test the effect of sGC activators in a cellular context. Human cDNAs for GUCYA3 (RefSeq: NM_000856.3) and GUCYB3 (RefSeq: NM_000857.1) were amplified by PCR from a HUVEC (Human Umbilical Vein Endothelial Cells) cDNA library and cloned into mammalian expression vectors. CHO K1 cells (ATCC CCL-61) were transfected using Lipofectamine 2000 following manufacturer's instructions and stably expressing clones were identified by antibiotic selection. CHO GUCY clone 8E10 was used for subsequent experiments. Cells were seeded at a density of 3000 cells/well in white 384-well proxyplates (Perkin Elmer) and incubated overnight, then the medium was removed and cells were washed with assay buffer (HBSS, 0.1% BSA. 1 mM IBMX, 20 uM ODQ). sGC activators were serially diluted in DMSO, then diluted in assay buffer prior to adding to cells (10 ul/well, final DMSO concentration 0.5%). Cells were incubated with compounds for 1 h room temperature, then assayed for cGMP production using Cisbio cGMP HTRF kit (62GM2PEC) according to manufacturer's instructions. The EC50s are calculated based on the amount of cGMP interpolated from the standard curve, using a 4-parameter sigmoidal dose-response.

Chain of soluble guanylate cyclase (human GUCYA3 and GUCYB3) overexpressed in CHO cells (Q02108 whole entry partner): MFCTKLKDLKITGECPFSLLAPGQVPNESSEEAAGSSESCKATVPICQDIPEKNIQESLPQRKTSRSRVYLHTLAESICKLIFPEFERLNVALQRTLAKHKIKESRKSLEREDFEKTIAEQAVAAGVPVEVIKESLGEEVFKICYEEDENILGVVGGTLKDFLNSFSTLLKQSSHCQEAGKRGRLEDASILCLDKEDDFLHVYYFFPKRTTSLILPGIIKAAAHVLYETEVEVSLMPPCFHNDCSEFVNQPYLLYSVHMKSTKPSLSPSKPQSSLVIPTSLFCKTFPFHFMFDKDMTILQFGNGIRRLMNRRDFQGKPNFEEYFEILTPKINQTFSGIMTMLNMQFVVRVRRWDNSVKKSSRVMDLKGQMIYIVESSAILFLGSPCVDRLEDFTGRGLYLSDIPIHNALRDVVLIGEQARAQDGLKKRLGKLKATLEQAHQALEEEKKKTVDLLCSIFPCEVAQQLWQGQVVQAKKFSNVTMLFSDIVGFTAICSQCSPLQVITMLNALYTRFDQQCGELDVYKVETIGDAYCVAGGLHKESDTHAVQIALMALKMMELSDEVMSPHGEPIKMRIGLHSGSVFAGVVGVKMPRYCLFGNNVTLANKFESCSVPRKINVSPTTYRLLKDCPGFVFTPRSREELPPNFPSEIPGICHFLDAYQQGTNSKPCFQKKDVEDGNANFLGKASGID
Chain of soluble guanylate cyclase (human GUCYA3 and GUCYB3) overexpressed in CHO cells (Q02153 whole entry): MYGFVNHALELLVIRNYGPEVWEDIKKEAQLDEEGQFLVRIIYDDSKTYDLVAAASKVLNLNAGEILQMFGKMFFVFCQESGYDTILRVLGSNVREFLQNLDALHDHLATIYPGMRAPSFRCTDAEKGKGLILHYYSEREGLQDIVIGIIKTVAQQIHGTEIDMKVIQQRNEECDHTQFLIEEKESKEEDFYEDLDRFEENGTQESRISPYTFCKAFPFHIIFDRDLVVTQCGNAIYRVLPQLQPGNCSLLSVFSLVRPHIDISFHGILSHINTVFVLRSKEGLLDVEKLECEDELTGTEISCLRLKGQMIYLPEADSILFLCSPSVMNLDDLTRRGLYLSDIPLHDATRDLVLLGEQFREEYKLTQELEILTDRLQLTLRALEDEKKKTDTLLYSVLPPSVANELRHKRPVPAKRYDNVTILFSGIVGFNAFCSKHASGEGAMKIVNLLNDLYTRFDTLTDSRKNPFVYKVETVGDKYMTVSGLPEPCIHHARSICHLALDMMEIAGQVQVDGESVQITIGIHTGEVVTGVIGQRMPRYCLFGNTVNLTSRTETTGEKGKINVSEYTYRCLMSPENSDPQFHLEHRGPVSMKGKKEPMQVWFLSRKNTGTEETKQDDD

pEC50	SMILES
9.00	Cc1cc(C2CCN(C(=O)C3CC3)CC2)ccc1OC1CCc2cccc(-c3cccc(-n4ncc(C(=O)O)c4C(F)(F)F)n3)c21 (single isomer, unassigned; (+)) [Example 3a, (+)-1-(6-(3-(4-(1-(cyclopropanecarbonyl)piperidin-4-yl)-2-methylphenoxy)-2,3-dihydro-1H-inden-4-yl)pyridin-2-yl)-5-(trifluoromethyl)-1H-pyrazole-4-carboxylic Acid]
≥ 9.30	Cc1cc(C2CCN(C(=O)C3CC3)CC2)ccc1NC1CCc2cccc(-c3cccc(-n4ncc(C(=O)O)c4C(F)(F)F)c3)c21 (single isomer, unassigned; (+)) [Example 6. b). (+), (+)-1-(3-(3-((4-(1-(cyclopropanecarbonyl)piperidin-4-yl)-2-methylphenyl)amino)-2,3-dihydro-1H-inden-4-yl)phenyl)-5-(trifluoromethyl)-1H-pyrazole-4-carboxylic acid]
≥ 9.30	Cc1cc(C2CCN(C(=O)C3CC3)CC2)ccc1NC1CCc2cccc(-c3cccc(-n4ncc(C(=O)O)c4C)n3)c21 (single isomer, unassigned; (+)) [Example 7a, (+)-1-(6-(3-((4-(1-(cyclopropanecarbonyl)piperidin-4-yl)-2-methylphenyl)amino)-2,3-dihydro-1H-inden-4-yl)pyridin-2-yl)-5-methyl-1H-pyrazole-4-carboxylic acid]
≥ 9.30	Cc1c(C(=O)O)cnn1-c1cccc(-c2cccc3c2C(Nc2ccc(C4CCN(C(=O)C5CC5)CC4)cc2)CC3)n1 (single isomer, unassigned; (+)) [Example 9. b). (+), (+)-1-(6-(3-((4-(1-(cyclopropanecarbonyl)piperidin-4-yl)phenyl)amino)-2,3-dihydro-1H-inden-4-yl)pyridin-2-yl)-5-methyl-1H-pyrazole-4-carboxylic acid]
≥ 9.30	CCc1c(C(=O)O)cnn1-c1cccc(-c2cccc3c2C(Nc2ccc(C4CCN(C(=O)C5CC5)CC4)cc2C)CC3)n1 (single isomer, unassigned; (+)) [Example 10a]
≥ 9.30	Cc1cc(C2CCN(C(=O)C3CC3)CC2)ccc1NC1COc2cccc(-c3cccc(-n4ncc(C(=O)O)c4C)n3)c21 (single isomer, unassigned; (+)) [Example 34a, (+)-1-(6-(3-((4-(1-(Cyclopropanecarbonyl)piperidin-4-yl)-2-methylphenyl)amino)-2,3-dihydrobenzofuran-4-yl)pyridin-2-yl)-5-methyl-1H-pyrazole-4-carboxylic Acid]
≥ 9.30	Cc1cc(C2CCN(C(=O)[C@H](C)O)CC2)ccc1NC1COc2cccc(-c3cccc(-n4ncc(C(=O)O)c4C)n3)c21 (single isomer, unassigned; (+)) [Example 35a]
≥ 9.30	Cc1cc(C2CCN(C(=O)C3CC3)CC2)ccc1CC1CCc2cccc(-c3cccc(-n4ncc(C(=O)O)c4C)n3)c21 (single isomer, unassigned; (+)) [Example 37. b). (+), (+)-1-(6-(3-(4-(1-(Cyclopropanecarbonyl)piperidin-4-yl)-2-methylbenzyl)-2,3-dihydro-1H-inden-4-yl)pyridin-2-yl)-5-methyl-1H-pyrazole-4-carboxylic acid]
≥ 9.30	CCc1c(C(=O)O)cnn1-c1cccc(-c2cccc3c2C(Cc2ccc(C4CCN(C(=O)OC)CC4)cc2C)CC3)n1 (single isomer, unassigned; (+)) [Example 42. b). (+), (+)-5-ethyl-1-(6-(3-(4-(1-(methoxycarbonyl)piperidin-4-yl)-2-methylbenzyl)-2,3-dihydro-1H-inden-4-yl)pyridin-2-yl)-1H-pyrazole-4-carboxylic acid]
≥ 9.30	Cc1cc(C2CCN(C(=O)C3CCC3)CC2)ccc1NC1CCc2cccc(-c3cccc(-n4ncc(C(=O)O)c4C)n3)c21 (single isomer, unassigned; (+)) [Example 45a]
≥ 9.30	Cc1cc(C2CCN(C(=O)[C@H](C)O)CC2)ccc1NC1CCc2cccc(-c3cccc(-n4ncc(C(=O)O)c4C)n3)c21 (single isomer, unassigned; (+)) [Example 47a]
≥ 9.30	Cc1cc(C2CCN(C(=O)C3CC3)CC2)ccc1NC1CCc2cccc(-c3cccc(-n4ncc(C(=O)O)c4C(F)F)c3)c21 (single isomer, unassigned; (+)) [Example 55-2, (+)-1-(3-(3-((4-(1-(Cyclopropanecarbonyl)piperidin-4-yl)-2-methylphenyl)amino)-2,3-dihydro-1H-inden-4-yl)phenyl)-5-(difluoromethyl)-1H-pyrazole-4-carboxylic acid]
9.00	Cc1cc(C2CCN(C(=O)C3CC3)CC2)ccc1NC1CCc2cccc(-c3cccc(-n4ncc(C(=O)O)c4CC(F)(F)F)n3)c21 (single isomer, unassigned; (+)) [Example 57, (+)-1-(6-(3-((4-(1-(Cyclopropanecarbonyl)piperidin-4-yl)-2-methylphenyl)amino)-2,3-dihydro-1H-inden-4-yl)pyridin-2-yl)-6-(2,2,2-trifluoroethyl)-1H-pyrazole-4-carboxylic Acid]
8.70	CCc1nc(NC2CCc3cccc(-c4cccc(-n5ncc(C(=O)O)c5CC)n4)c32)ccc1C1CCN(C(=O)C2CC2)CC1 (single isomer, unassigned; (+)) [Example 63a, (+)-1-(6-(3-((5-(1-(Cyclopropanecarbonyl)piperidin-4-yl)-6-ethylpyridin-2-yl)amino)-2,3-dihydro-1H-inden-4-yl)pyridin-2-yl)-5-ethyl-1H-pyrazole-4-carboxylic Acid]
≥ 9.30	Cc1cc(C2CCN(C(=O)C3CC3)CC2)ccc1NC1CCc2cccc(-c3cccc(-n4ncc(C(=O)O)c4C(F)(F)F)n3)c21 (single isomer, unassigned; (+)) [Example (+)-8. b), (+)-1-(6-(3-((4-(1-(cyclopropanecarbonyl)piperidin-4-yl)-2-methylphenyl)amino)-2,3-dihydro-1H-inden-4-yl)pyridin-2-yl)-5-(trifluoromethyl)-1H-pyrazole-4-carboxylic acid]

The next lines start with the compound.

SMILES	pEC50
O=C(O)c1cnn(-c2cccc(-c3cccc4c3C(Oc3ccc5c(c3)CCN(Cc3ccccn3)C5)CC4)n2)c1C(F)(F)F (single isomer, unassigned; (+)) [Example 4a, (+)-1-(6-(3-((2-(pyridin-2-ylmethyl)-1,2,3,4-tetrahydroisoquinolin-6-yl)oxy)-2,3-dihydro-1H-inden-4-yl)pyridin-2-yl)-5-(trifluoromethyl)-1H-pyrazole-4-carboxylic Acid]	8.62
CCc1cc(CN2CC(C)c3cccc(-c4cccc(-n5ncc(C(=O)O)c5C(F)(F)F)n4)c32)ccc1C1CCN(C(=O)C2CC2)CC1 (single isomer, unassigned; (+)) [Example 19a]	≥ 9.30
CCc1cc(CN2c3c(cccc3-c3cccc(-n4ncc(C(=O)O)c4CC)n3)CC2C)ccc1C1CCN(C(=O)C2CC2)CC1 (single isomer, unassigned; (+)) [Example 22a, (+)-1-(6-(1-(4-(1-(Cyclopropanecarbonyl)piperidin-4-yl)-3-ethylbenzyl)-2-methylindolin-7-yl)pyridin-2-yl)-6-ethyl-1H-pyrazole-4-carboxylic Acid]	9.00
CCc1cc(CC2CCc3cccc(-c4cccc(-n5ncc(C(=O)O)c5CC)n4)c32)ccc1C1CCN(C(=O)[C@H](C)O)CC1 (single isomer, unassigned; (+)) [Example 39. b). (+)]	≥ 9.30
CCc1cc(CC2CCc3cccc(-c4cccc(-n5ncc(C(=O)O)c5CC)n4)c32)ccc1C1CCN(C(=O)OC)CC1 (single isomer, unassigned; (+)) [Example 41. b). (+), (+)-5-ethyl-1-(6-(3-(3-ethyl-4-(1-(methoxycarbonyl)piperidin-4-yl)benzyl)-2,3-dihydro-1H-inden-4-yl)pyridin-2-yl)-1H-pyrazole-4-carboxylic acid]	≥ 9.30
CCc1cc(NC2CCc3cccc(-c4cccc(-n5ncc(C(=O)O)c5CC)n4)c32)ccc1C1CCN(C(=O)[C@H](C)O)CC1 (single isomer, unassigned; (+)) [Example 48a]	≥ 9.30
CCC[C@H](O)C(=O)N1CCC(c2ccc(NC3CCc4cccc(-c5cccc(-n6ncc(C(=O)O)c6CC)n5)c43)cc2CC)CC1 (single isomer, unassigned; (+)) [Example 49a]	≥ 9.30
CCc1cc(NC2CCc3cccc(-c4cccc(-n5ncc(C(=O)O)c5CC)n4)c32)ccc1C1CCN(C(=O)[C@@H](O)CC)CC1 (single isomer, unassigned; (+)) [Example 50a]	≥ 9.30
CCc1cc(NC2CCc3cccc(-c4cccc(-n5ncc(C(=O)O)c5CC)n4)c32)ccc1C1CCN(C(=O)OC(C)C)CC1 (single isomer, unassigned; (+)) [Example 51a]	≥ 9.30
Cc1cc(C2CCN(C(=O)CO)CC2)ccc1NC1CCc2cccc(-c3cccc(-n4ncc(C(=O)O)c4C(F)(F)F)c3)c21 (single isomer, unassigned; (+)) [Example 56]	9.00
Cc1cc(C2CCN(C(=O)C3CC3)CC2)ccc1OC1CCc2cccc(-c3cccc(-n4ncc(C(=O)O)c4C(F)(F)F)c3)c21 (single isomer, unassigned; (+)) [Example (+)-1. b), (+)-1-(3-(3-(4-(1-(cyclopropanecarbonyl)piperidin-4-yl)-2-methylphenoxy)-2,3-dihydro-1H-inden-4-yl)phenyl)-5-(trifluoromethyl)-1H-pyrazole-4-carboxylic acid]	≥ 9.30
